Common to all, as to type: biochemical
The target in test [1] is T1, full-length SHP2-E76K oncogenic mutant (Homo sapiens, UniProt Q06124, E76K).
T1 construct: Recombinant human full-length SHP2 (1–594) WT and E76K mutants; made in house
T1 sequence (Q06124 1-593 E76K): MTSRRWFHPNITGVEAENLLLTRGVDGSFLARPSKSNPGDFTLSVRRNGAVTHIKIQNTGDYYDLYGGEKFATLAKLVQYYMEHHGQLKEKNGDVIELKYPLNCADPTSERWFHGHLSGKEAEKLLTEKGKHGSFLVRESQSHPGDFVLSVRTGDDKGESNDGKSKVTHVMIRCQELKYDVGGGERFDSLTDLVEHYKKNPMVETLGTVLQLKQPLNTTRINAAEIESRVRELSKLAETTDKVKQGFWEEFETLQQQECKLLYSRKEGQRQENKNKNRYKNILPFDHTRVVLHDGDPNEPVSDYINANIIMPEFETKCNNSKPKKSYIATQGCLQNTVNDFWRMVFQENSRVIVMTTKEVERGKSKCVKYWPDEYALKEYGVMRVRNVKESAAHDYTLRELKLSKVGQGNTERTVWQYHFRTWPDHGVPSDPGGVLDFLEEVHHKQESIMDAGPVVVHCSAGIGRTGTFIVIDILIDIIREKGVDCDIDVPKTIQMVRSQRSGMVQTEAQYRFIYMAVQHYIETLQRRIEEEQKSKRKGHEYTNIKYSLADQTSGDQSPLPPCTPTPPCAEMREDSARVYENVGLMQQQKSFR
In words: DiFMUP fluorescence phosphatase inhibition assay, SHP2-E76K. To be noted: for IC50: DiFMUP at Km (20 μM), 10-point dose–response, pH 6.0. The text has this: (§1) To test the synthesized compounds for their potential to inhibit SHP2 activity, a fluorescence intensity-based assay using 6,8-difluoro-4-methylumbelliferyl phosphate (DiFMUP) as the substrate was adapted for three recombinant SHP2 constructs: (1) the SHP2 catalytic domain (SHP2cat; residues 248–527), (2) the full-length SHP2-E76K oncogenic mutant, and (3) the full-length SHP2 WT (SHP2-WT). The recombinant SHP2 proteins were expressed and purified as described previously ([36]). A dually phosphorylated peptide derived from the insulin receptor substrate 1 (IRS-1) served as a surrogate binding protein and was used to activate SHP2-WT ([30], [36]). […] Michaelis–Menten experiments to determine the DiFMUP Michaelis–Menten constant (Km) for each SHP2 construct were performed as described previously ([36]) and yielded the following values: SHP2-WT, Km = 60 μM; SHP2-E76K, Km = 20 μM; and SHP2cat, Km = 20 μM. Relative maximum rates (Vmax) of the DiFMUP reactions expressed as relative fluorescence units per minute (RFU/min) were as follows: SHP2-WT, Vmax = 871 RFU/min; SHP2-E76K, Vmax = 2730 RFU/min; and SHP2cat, Vmax = 2912 RFU/min. IC50 values for each compound were determined from initial rates in 10-point dose–response assays using DiFMUP at a concentration corresponding to its Km value for the respective SHP2 construct. […] Replacements for the benzothiophenone were explored using analog #10.
(§2) Recombinant human full-length SHP2 (1–594) WT and E76K mutants, as well as the SHP2cat (248–527), were expressed and purified as described before ([36], [41]). Recombinant human PTP1B (1–300) and the codon-optimized STEP (280–566) catalytic domains were cloned into PET-15b and expressed as N-His-tagged fusion proteins. For expression, transformed BL21(DE3) cells were grown and induced similar as described for SHP2. Collected cells were resuspended in lysis buffer (25 mM Tris, pH 7.5, 300 mM NaCl, 50 mM imidazole, and 10% glycerol) with 100 mg/l RNaseA and were lysed with two passages using a microfluidizer. The lysate was clarified by centrifugation at 15,000g for 50 min and applied to nickel–nitrilotriacetic acid resin. The column resin was washed, and the PTP1B or STEP protein was eluted in lysis buffer at 300 mM imidazole. The PTP1B or STEP protein was further purified by S75 size-exclusion chromatography in 50 mM Tris, pH 7.5, 50 mM NaCl. The eluted peak fractions were supplemented with tris(2-carboxyethyl)phosphine to 10 mM, concentrated by ultrafiltration, and stored at −80 °C. The purified yield of PTP1B was 33 mg/l cell culture; the yield of STEP was 16 mg/l cell culture.
(§3) SHP2 inhibitors were tested at RT in a 384-well plate format standard phosphatase fluorescence intensity assay using DiFMUP (Invitrogen/Thermo Fisher Scientific) as a substrate and a total reaction volume of 25 μl. SHP2 inhibitors or vehicle (DMSO) were spotted in triplicate into a black Greiner FLUOTRAC 200 384-well microplate (catalog no.: 781076; Greiner) for a 10-point dose–response assay using an Echo 555 Liquid Handler (Labcyte, Inc). PTP working solutions were prepared at a 0.625 nM concentration (for a final concentration of 0.5 nM) in buffer containing 50 mM Bis–Tris, pH 6.0, 50 mM NaCl, 5 mM DTT, and 0.01% Tween-20. Prior to the assay, a dually phosphorylated IRS-1 peptide (625 nM [500 nM final] ([30])) was added to full-length WT SHP2 working solutions and incubated for 20 min. DiFMUP working solutions at 5× final concentration were prepared in 50 mM Bis–Tris, pH 6.0, 50 mM NaCl, and 0.01% Tween-20. About 20 μl of PTP working solution was dispensed into the microplate and incubated with inhibitor for 20 min at RT. […] The reaction was initiated by addition of 5 μl DiFMUP working solutions. Fluorescence intensity was measured in kinetic mode (every minute for 7 or 10 min) using a Tecan Spark Multimode Microplate Reader (Tecan) with an excitation wavelength of 360 nm and an emission wavelength of 460 nm. […]

In test [2] the target is T2, full-length SHP2 WT (SHP2-WT) (Homo sapiens, UniProt Q06124).
T2 construct: Recombinant human full-length SHP2 (1–594) WT and E76K mutants; made in house
In words: DiFMUP fluorescence phosphatase inhibition assay, SHP2-WT activated with IRS-1 peptide. The note with it: DiFMUP at Km (60 μM), pH 6.0.
From the text: as §1, §2, §3

The target of test [3] is T3, SHP2 catalytic domain (SHP2cat; residues 248–527) (Homo sapiens, UniProt Q06124).
T3 construct: the SHP2 catalytic domain (SHP2cat; residues 248–527); made in house
T3 sequence (Q06124 248-527): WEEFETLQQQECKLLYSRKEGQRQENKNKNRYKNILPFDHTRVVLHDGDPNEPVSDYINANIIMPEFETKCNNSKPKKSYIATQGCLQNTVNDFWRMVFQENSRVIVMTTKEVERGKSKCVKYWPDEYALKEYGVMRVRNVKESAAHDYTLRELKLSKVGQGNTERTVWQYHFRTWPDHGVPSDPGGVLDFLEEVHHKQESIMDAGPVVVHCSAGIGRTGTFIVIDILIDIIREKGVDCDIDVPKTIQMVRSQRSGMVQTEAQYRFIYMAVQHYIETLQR
In words: DiFMUP fluorescence phosphatase inhibition assay, SHP2cat. To be noted: DiFMUP at Km (20 μM), pH 6.0; read-out: SHP2cat; IC50.
From the text: as §1, §2, §3

Structures are written as SMILES. A value given as a limit tells only on which side of the number the result lay.

For `O=C(O)c1cc(-c2ccc(/C=C3\Oc4ccccc4C3=O)o2)ccc1O` [SBI-0165, (Z)-2-Hydroxy-5-(5-((3-oxobenzofuran-2(3H)-ylidene)methyl)furan-2-yl)benzoic acid], the figures for the IC50 in test [1], in test [2] and in test [3] were 7.2 µM, 13 µM and 2.4 µM, respectively.
Consider `CC(C)NC(=O)c1cc(-c2ccc(/C=C3\Sc4ccccc4C3=O)o2)ccc1O` [SBI-0287, (Z)-2-Hydroxy-N-isopropyl-5-(5-((3-oxobenzo[b]thiophen-2(3H)-ylidene)methyl)furan-2-yl)benzamide], for which the IC50 was 20 µM in test [1] and 53 µM in test [2].
As for `O=C(NCCO)c1cc(-c2ccc(/C=C3\Sc4ccccc4C3=O)o2)ccc1O` [SBI-1457, (Z)-2-Hydroxy-N-(2-hydroxyethyl)-5-(5-((3-oxobenzo[b]thiophen-2(3H)-ylidene)methyl)furan-2-yl)benzamide], the IC50 in test [1] and in test [2] was above 100 µM throughout.
In the case of `O=C1/C(=C/c2ccc(-c3ccc(O)c(C(=O)N4CCNCC4)c3)o2)Sc2ccccc21` [SBI-2124, (Z)-2-((5-(4-Hydroxy-3-(piperazine-1-carbonyl)phenyl)furan-2-yl)methylene)benzo[b]thiophen-3(2H)-one], the IC50 is 91 µM in test [1] and above 100 µM in test [2].
On to `CN1CCN(C(=O)c2cc(-c3ccc(/C=C4\Sc5ccccc5C4=O)o3)ccc2O)CC1` [SBI-2125, (Z)-2-((5-(4-Hydroxy-3-(4-methylpiperazine-1-carbonyl)phenyl)furan-2-yl)methylene)benzo[b]thiophen-3(2H)-one], for which the IC50 in test [1] and in test [2] was above 100 µM in each case.
For the compound `Nc1cccc(NC(=O)c2cc(-c3ccc(/C=C4\Sc5ccccc5C4=O)o3)ccc2O)c1` [SBI-2126, (Z)-N-(3-Aminophenyl)-2-hydroxy-5-(5-((3-oxobenzo[b]thiophen-2(3H)-ylidene)methyl)furan-2-yl)benzamide], the IC50 in test [1] was 7.2 µM; in test [2], 18 µM; in test [3], 5 µM.
Take `O=C(NNc1ccccc1)c1cc(-c2ccc(/C=C3\Sc4ccccc4C3=O)o2)ccc1O` [SBI-2128, (Z)-2-Hydroxy-5-(5-((3-oxobenzo[b]thiophen-2(3H)-ylidene)methyl)furan-2-yl)-N′-phenylbenzohydrazide]: the IC50 in test [1] stood at 11 µM; in test [2], 14 µM; in test [3], 3.1 µM.
With `O=C(NCc1ccccc1)c1cccc(-c2ccc(/C=C3\Sc4ccccc4C3=O)o2)c1` [SBI-2129, (Z)-N-benzyl-3-(5-((3-oxobenzo[b]thiophen-2(3H)-ylidene)methyl)furan-2-yl)benzamide], the IC50 in test [1] is 65 µM; in test [2], above 100 µM.
Regarding `O=C1/C(=C/c2ccc(-c3ccc(O)c(C(=O)N4CCCCC4)c3)o2)Sc2ccccc21` [SBI-2131, (Z)-2-((5-(4-Hydroxy-3-(piperidine-1-carbonyl)phenyl)furan-2-yl)methylene)benzo[b]thiophen-3(2H)-one], the IC50 in test [1] worked out at 15 µM; in test [2], 52 µM; in test [3], 4.3 µM.
In the case of `O=C(Nc1ccccc1)c1cc(-c2ccc(/C=C3\Sc4ccccc4C3=O)o2)ccc1F` [SBI-2348, (Z)-2-Fluoro-5-(5-((3-oxobenzo[b]thiophen-2(3H)-ylidene)methyl)furan-2-yl)-N-phenylbenzamide], the IC50 in test [1] and in test [2] was above 100 µM in each case.
For `COc1ccc(-c2ccc(/C=C3\Sc4ccccc4C3=O)o2)cc1C(=O)Nc1ccccc1` [SBI-2349, (Z)-2-Methoxy-5-(5-((3-oxobenzo[b]thiophen-2(3H)-ylidene)methyl)furan-2-yl)-N-phenylbenzamide], the figures for the IC50 in test [1] and in test [2] were 84 µM and 87 µM, respectively.
Consider `O=C1CCCC1=Cc1ccc(-c2ccc(O)c(C(=O)O)c2)o1` [SBI-3191, 2-Hydroxy-5-(5-((2-oxocyclopentylidene)methyl)furan-2-yl)benzoic acid], for which the IC50 in test [1] was 6 µM; in test [2], 24 µM; in test [3], 7.4 µM.
Take `O=C1CCCCC1=Cc1ccc(-c2ccc(O)c(C(=O)O)c2)o1` [SBI-3194, 2-Hydroxy-5-(5-((2-oxocyclohexylidene)methyl)furan-2-yl)benzoic acid]: the IC50 in test [1] is 39 µM; in test [2] it was 56 µM.
Take `O=C1/C(=C/c2ccc(-c3ccccc3)o2)Sc2ccccc21` [SBI-3570, (Z)-2-((5-phenylfuran-2-yl)methylene)benzo[b]thiophen-3(2H)-one]: the IC50 in test [1] and in test [2] was above 100 µM each time.
`O=C1/C(=C/c2ccc(-c3ccc(O)cc3)o2)Sc2ccccc21` [SBI-4167, (Z)-2-((5-(4-Hydroxyphenyl)furan-2-yl)methylene)benzo[b]thiophen-3(2H)-one]: the results for the IC50 in test [1] and in test [2] were 79 µM and above 100 µM, respectively. Also, the “loss in potency compared with #01” value in test [1] (E76K IC50) is given as around 165 fold.
Regarding `O=C(Nc1ccccc1)c1cc(-c2ccco2)ccc1O` [SBI-4232, 5-(Furan-2-yl)-2-hydroxy-N-phenylbenzamide], the IC50 in test [1] and in test [2] was above 100 µM in each case.
With `O=C(Nc1ccccc1)c1cccc(-c2ccc(/C=C3\Sc4ccccc4C3=O)o2)c1` [SBI-5923, (Z)-3-(5-((3-Oxobenzo[b]thiophen-2(3H)-ylidene)methyl)furan-2-yl)-N-phenylbenzamide], the values for the IC50 in test [1] and in test [2] were 52 µM and 62 µM, respectively.

Values taken from paper PMC8760490, “Discovery of novel furanylbenzamide inhibitors that target oncogenic tyrosine phosphatase SHP2 in leukemia cells” (The Journal of Biological Chemistry, 2021).
